Measured values from patent US20170197977A9, “COMPOSITIONS AND METHODS FOR TREATING NEURODEGENERATIVE DISEASE” (COGNITION THERAPEUTICS, INC., priority 2011, published 2017).
Entries after “also recorded” stand apart in the source; their conditions may differ.

Tests used:
sigma-1 receptor = target: T1, sigma-1 receptor (Cavia porcellus, UniProt Q60492); experiment: Competitive radioligand binding assay 2, guinea pig brain membrane homogenates; settings: read-out: Sigma-1 (Ki, nM) ±mean SEM
T1 construct: from tissue; host or cells: guinea pig brain membrane homogenates
T1 sequence (Q60492 whole entry): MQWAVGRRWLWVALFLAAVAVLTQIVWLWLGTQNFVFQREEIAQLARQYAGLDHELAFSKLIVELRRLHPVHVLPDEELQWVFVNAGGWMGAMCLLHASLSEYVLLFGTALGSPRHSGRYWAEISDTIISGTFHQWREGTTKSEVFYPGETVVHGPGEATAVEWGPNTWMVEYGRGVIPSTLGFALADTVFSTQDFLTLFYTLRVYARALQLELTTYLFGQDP
Procedure: The affinity of candidate sigma-2 ligand compounds at sigma-1 and sigma-2 receptors was also determined by displacement of different known labeled sigma-2 or sigma-1 ligands. Filtration assays were conducted according the previously published procedure (Xu, et al., 2005). Test compounds were dissolved in N,N-Dimethylformamide (DMF), dimethyl sulfoxide (DMSO) or ethanol and then diluted in 50 mM Tris-HCl pH 7.4 buffer containing 150 mM NaCl and 100 mM EDTA. Membrane homogenates were made from guinea pig brain for sigma-1 binding assay and rat liver for sigma-2 binding assay. Membrane homogenates were diluted with 50 mM Tris-HCl buffer, pH 8.0 and incubated at 25° C. in a total volume of 150 uL in 96 well plates with the radioligand and test compounds with concentrations ranging from 0.1 nM to 10 uM. […] A Wallac 1450 MicroBeta liquid scintillation counter (Perkin Elmer, Boston, Mass.) was used to quantitate the bound radioactivity.
The binding affinity, Ki values was calculated using the method of Cheng and Prusoff. […]

[1] = test system: neurons and glia in culture; experiment: In vitro neuronal and glial toxicity, acute or chronic dosing; assay type: cell-based; settings: up to 50 μM, three days
sigma-2 receptor = experiment: Autoradiography, displacement of [3H]-RHM-1 in brain sections; assay type: binding; settings: 1 μM; monkey frontal cortex, monkey hippocampus, human temporal cortex
Procedure: Brain sections in 20 μM thickness from rats, rhesus monkeys and postmortem human brains were cut using with a Microm cryotome and mounted on superfrost plus glass slides (Fisher Scientific, Pittsburgh, Pa.)., and serial sections through the brain regions of cerebral cortex and hippocampus were used in this study.
Slides were dried and made conductive by coating with a copper foil tape on the free side and then placed in the gas chamber [mixture of argon and triethylamine (Sigma-Aldrich, USA)] of a gaseous detector, the Beta Imager 2000Z Digital Beta Imaging System (Biospace, France). […] [^3H]Microscale (American Radiolabeled Chemicals, Inc., St. Louis, Mo.) was counted at the same time as a reference for total radioactivity quantitative analysis, i.e., to convert the cpm/mm2 to nCi/mg tissue. Quantitative analysis was performed with the program Beta-Image Plus (BioSpace, France) for the anatomical regions of interest (ROI), i.e., to obtain the quantitative radioactivity uptake (cpm/nlln2) in the regions of cortex and hippocampus. The binding density was normalized to fmol/mg tissue based on the specific activities of the corresponding radioligands and calibration curve from the standard [^3H]Microscale.

100 known receptors = experiment: Test for action at 100 known receptors; assay type: binding, human; settings: 10 μM
Procedure: It was also tested for its ability to block downstream signaling induced by agonists or antagonists of a given human receptor.

[2] = test system: Abeta oligomer-induced synapse loss; experiment: Synapse loss assay (synaptophysin puncta) in primary neurons; assay type: cell-based, rat
Procedure: (§1) In this assay, Abeta oligomers were brought in contact with mature primary neurons in culture and their binding was determined by immunohistochemistry (anti-Abeta antibody) and quantified by image processing. The amount of Abeta in neuronal dendrites is assessed by counting the number of labeled puncta on the neuritis. […] This labeling is associated with synapses, co-localizing with the post-synaptic scaffold protein PSD-95 (Lacor et al., '04). […] The number of synapses can also be quantified in this assay by immunofluorochemistry. Similar procedures for binding assays can be found in the literature. […] Review.
(§2) Primary hippocampal neuronal culture was established as in the membrane trafficking assay above. […] Pretreatment with compounds to be tested lasted for 1 hr and addition of Abeta oligomers or no oligomer (vehicle alone) in a final concentration of 70 ul was followed by incubation for an additional 23 hrs.
(§3) The plates were then washed 3× with PBS for 5 min each. The plates were blocked at RT for 1 hr in 5% goat serum and 0.5% Triton X-100 in PBS. […] Primary antibodies were incubated overnight at 4° C. The plates were then washed 3× with PBS for 5 min each. […] Secondary antibodies were incubated at RT for 1 hr. The plates were washed once with PBS. DAPI (4′,6-diamidino-2-phenylindole, Invitrogen) was then applied at 0.03 ug/ul and incubated at RT for 5 min, then washed with PBS.
(§4) Images were captured and analyzed with the Cellomics VTI automated microscope platform, using the Neuronal Profiling algorithm. For statistical analysis, a Tukey-Kramer pair-wise comparison with unequal variance was used.

[3] = test system: Abeta oligomer-induced membrane trafficking deficits; experiment: Membrane trafficking/exocytosis (MTT) assay in mature primary hippocampal neurons; assay type: cell-based, rat; settings: for Membrane trafficking when dosed in the absence of Abeta: compound alone
Procedure: The present exocytosis assay was adapted for use with mature primary neuronal cultures grown for 3 weeks in vitro.
The methods used to generate the results were as follows in the Membrane Trafficking/Exocytosis (MTT) assay.
Primary hippocampal neurons from E18 Sprague-Dawley rat embryos were plated at optimized concentrations in 384 well plates in NB media (Invitrogen). Neurons were maintained in cultures for 3 weeks, with twice weekly feeding of NB media with N2 supplement (Invitrogen).
[…] MTT reagent (3-(4,5-dimethylthizaol-2yl)-2,5diphenyl tetrazolium bromide) (Roche Molecular Biochemicals) was reconstituted in phosphate buffered saline to 5 mg/mL. 10 μL of MTT labeling reagent is added to each well and incubated at 37° C. for 1 h, then imaged. Exocytosis was assessed by automated microscopy and image processing to quantify the amount of endocytosed and exocytosed formazan.
Each assay plate was formatted so that compounds are tested with and without Abeta oligomer on each plate.

[4] = test system: caspase-3 activity in SKOV-3 human ovarian cancer cells; experiment: Caspase-3 activity assay in tumor cells; assay type: cell-based
neuronal cultures = experiment: Nuclear intensity / morphology in neuronal cultures; settings: 24 hours
[5] = test system: caspase-3 activity in neurons; experiment: Caspase-3 activity assay in neurons; assay type: cell-based
Procedure: The activation of endogenous caspase-3 by sigma-2 receptor ligands was measured using the Caspase-3 Colorimetric Activity Assay Kit (Milipore, Billerica, Mass.) according to the manufacture's protocol. Briefly, MDA-MB 435 or MDA-MB23I cells were plated at 0.5×10^6 cells 100 mm dish. 24 hours after plating, sigma-2 ligands were added to the culture dishes to induce caspase 3 activation. The final concentration of the sigma-2 ligand was its EC50. 24 hours after treatment, cells were harvested, lysed in 300 uL of Cell Lysis Buffer, and centrifuged for 5 minutes at 10,000×g. Supernatant was collected and incubated with caspase-3 substrate, DEVD-pNA, for 2 hours at 37° C. […] Compounds IXa,IXb and II behaved like sigma-2 […] in both cancer cells and neurons.

[6] = test system: Abeta oligomer binding to neurons; experiment: Abeta 1-42 oligomer binding assay in primary neurons; assay type: cell-based, rat
Procedure: as §1, §2, §3, §4

Question: How did the Ki (sigma-1 receptor) turn out when `COc1cc(CCC(C)NCc2ccc(C(F)(F)F)cc2)ccc1O` (centres unmarked) [Compound II] was run?
Answer: Its Ki is 108 ± 19.9 nM.

Question: And the “Toxicity (neuron number, glial number, nuclear size, nuclear morphology, neurite length, cytoskeletal morphology)” value [1]?
Answer: The value was “no toxicity”.

Question: What about the “Displacement of 18.4 nM [3H]-RHM-1” value (sigma-2 receptor) of the same compound?
Answer: The value was “partially displace”.

Question: And the “Number of receptors with activity >50% (assay window) out of 100” value (100 known receptors)?
Answer: The value was 5.

Question: And the “Share of Abeta oligomer-induced synapse loss eliminated” value ([2]; 5 μM of compound)?
Answer: Its value is 100%.

Question: And the Block synapse loss ([2]; Table 10B)?
Answer: Its Block synapse loss is 100%.

Question: And the “Synapse number when dosed without Abeta oligomers” value ([2]; compound in vehicle alone)?
Answer: Its value is “No effect”.

Question: What about the “Abeta oligomer-induced synapse loss” value ([2]; in words) of the same compound?
Answer: The value was “completely eliminated this synaptic regression”.

Question: What about the “Membrane trafficking deficits induced by AD brain-derived Abeta oligomers” value ([3]; 137 pM oligomers, Compound II 15 uM) of the same compound?
Answer: The value was “eliminates the membrane trafficking deficits; also recorded: completely eliminated”.

Question: And the “Abeta oligomer-induced membrane traffic changes” value ([3]; 15 micromolar Compound II)?
Answer: The value was “blocked”.

Question: And the “Assay effects in the absence of Aβ” value ([3]; Table 10A, trafficking or synapse number without Abeta oligomer)?
Answer: Its value is “No”.

Question: What about the “Functional Neuronal Phenotype” value ([3]; Table 10B) of the same compound?
Answer: Its value is “Antagonist”.

Question: And the “Conc at Max Inhib. of Abeta” value ([3]; Table 11, figure in brackets)?
Answer: The value was 10.

Question: And the “Membrane trafficking when dosed in the absence of Abeta” value [3]?
Answer: Its value is “does not affect trafficking”.

Question: And the “Membrane trafficking when dosed in the absence of Abeta” value ([3]; listed as CT0109)?
Answer: The value was “no significant effect”.

Question: And the “Block of caspase-3 activation caused by sigma-2 receptor agonist SV-119” value [4]?
Answer: Its value is “do not block caspase-3 activation”.

Question: What about the “Induction of caspase-3 activity” value [4] of the same compound?
Answer: Its value is “did not induce caspase-3 activity”.

Question: What about the “Nuclear morphology / nuclear intensity compared to vehicle” value (neuronal cultures) of the same compound?
Answer: The value was “did not decrease nuclear intensity”.

Question: What about the “Induction of caspase-3 activity” value [5] of the same compound?
Answer: Its value is “did not induce caspase-3 activity”.

Question: What about the “Block of caspase-3 activation caused by sigma-2 receptor agonist SV-119” value ([5]; 24 hours) of the same compound?
Answer: Its value is “blocked caspase-3 activation”.

Question: What about the Abeta binding ([6]; Compound II 15 uM) of the same compound?
Answer: The Abeta binding was “reduced to essentially control levels”.

Question: What about the “Reduction of Abeta binding intensity (Abeta labeled puncta)” value ([6]; FIG. 3D) of the same compound?
Answer: The value was 18%.

Question: What about the “Partial block of binding of the Abeta oligomer ligand to neurons” value ([6]; imaging processing algorithm) of the same compound?
Answer: The value was “about 25%”.
